Experiments:
p38 MAPKα = p38 MAPKα (Homo sapiens (Human), UniProt Q16539); assay: p38 MAPKα enzyme inhibition (FRET, Z-LYTE; Method 2); assay type: biochemical
Protocol: (§1) The enzyme inhibitory activities of compounds disclosed herein are determined by FRET using synthetic peptides labelled with both donor and acceptor fluorophores (Z-LYTE, Invitrogen Ltd., Paisley, UK).
The inhibitory activities of test compounds against the p38 MAPKα isoform (MAPK14: Invitrogen) are evaluated indirectly by determining the level of activation/phosphorylation of the down-stream molecule, MAPKAP-K2. The p38 MAPKα protein (80 ng/mL, 2.5 μL) is mixed with the test compound (2.5 μL of either 4 μg/mL, 0.4 μg/mL, 0.04 μg/mL or 0.004 μg/mL) for 2 hr at RT. […] The mixture is incubated for 1 hr at RT. Development reagent (protease, 5 μL) is added for 1 hr prior to detection in a fluorescence microplate reader (Varioskan® Flash, ThermoFisher Scientific).
This method follows the same steps as Method 1 above, but utilises a higher concentration of the p38 MAPKα protein (2.5 μL of 200 ng/mL protein instead of 2.5 μL of 80 ng/mL protein) for mixing with the test compound (tested at either 1 μg/mL, 0.1 μg/mL, 0.01 μg/mL or 0.001 μg/mL).
(§2) In all cases, the site-specific protease cleaves non-phosphorylated peptide only and eliminates the FRET signal. Phosphorylation levels of each reaction are calculated using the ratio of coumarin emission (donor) over fluorescein emission (acceptor), for which high ratios indicate high phosphorylation and low ratios indicate low phosphorylation levels. […]

c-Src = c-Src (Homo sapiens (Human), UniProt P12931); assay: c-Src enzyme inhibition (FRET, Z-LYTE); assay type: biochemical
c-Src, sequence (P12931 whole entry, looked up): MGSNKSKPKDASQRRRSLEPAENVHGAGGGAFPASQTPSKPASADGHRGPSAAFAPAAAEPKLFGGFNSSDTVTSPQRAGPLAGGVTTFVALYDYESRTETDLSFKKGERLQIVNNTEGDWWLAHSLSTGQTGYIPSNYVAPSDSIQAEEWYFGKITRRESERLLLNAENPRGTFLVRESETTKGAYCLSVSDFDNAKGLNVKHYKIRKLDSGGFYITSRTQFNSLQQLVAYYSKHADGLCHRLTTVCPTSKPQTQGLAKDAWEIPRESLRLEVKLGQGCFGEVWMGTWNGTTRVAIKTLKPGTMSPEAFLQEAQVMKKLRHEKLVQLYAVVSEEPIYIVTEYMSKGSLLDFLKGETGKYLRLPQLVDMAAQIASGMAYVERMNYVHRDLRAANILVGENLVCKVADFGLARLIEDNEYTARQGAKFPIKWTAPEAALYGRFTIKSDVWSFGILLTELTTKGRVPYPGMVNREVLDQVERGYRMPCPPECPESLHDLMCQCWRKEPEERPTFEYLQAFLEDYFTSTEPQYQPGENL
Protocol: as §1
(§3) The inhibitory activities of compounds of the invention against c-Src and Syk enzymes (Invitrogen), are evaluated in a similar fashion to that described hereinabove. The relevant enzyme (3000 ng/mL or 2000 ng/mL respectively, 2.5 μL) is incubated with the test compound (either 1 μg/mL, 0.1 μg/mL, 0.01 μg/mL, or 0.001 μg/mL, 2.5 μL each) for 2 hr at RT. The FRET peptides (8 μM. 2.5 μL), and appropriate ATP solutions (2.5 μL, 800 μM for c-Src, and 60 μM ATP for Syk) are then added to the enzymes/compound mixtures and the mixture incubated for 1 hr. Development reagent (protease, 5 μL) is added for 1 hr prior to detection in a fluorescence microplate reader (Varioskan® Flash, ThermoFisher Scientific).
as §2

Syk = Syk (Homo sapiens (Human), UniProt P43405); assay: Syk enzyme inhibition (FRET, Z-LYTE); assay type: biochemical
Protocol: as §1, §3, §2

TNFα release in PBMCs = assay: LPS-induced TNFα release in PBMC cells (assay (b)); assay type: cell-based; details: Homo sapiens, LPS-stimulated PBMCs
Protocol: Peripheral blood mononuclear cells (PBMCs) from healthy subjects are separated from whole blood using a density gradient (Lymphoprep, Axis-Shield Healthcare). The PBMCs are seeded in 96 well plates and treated with compounds at the desired concentration for 2 hours before addition of 1 ng/mL LPS (Escherichia Coli 0111:B4 from Sigma Aldrich) for 24 hours under normal tissue culture conditions (37° C., 5% CO2). The supernatant is harvested for determination of IL-8 and TNFα concentrations by sandwich ELISA (Duo-set, R&D systems) and read on the fluorescence microplate reader (Varioskan® Flash, ThermoFisher Scientific). The concentration at 50% inhibition (IC50) of IL-8 and TNFα production is calculated from the dose response curve.

Jurkat cells = assay: Cell cytotoxicity assay, Jurkat cell viability (assay (r)); assay type: cell-based, human; details: 24 hours
Protocol: 1×10^5 Jurkat cells (immortalised human T lymphocytes) are added to the appropriate number of wells of a 96 well plate in 100 μL of media (RPMI supplemented with 10% foetal bovine serum). 1 μL of DMSO control (final concentration 1.0% v/v) or test compound (final concentration 20, 5 or 1 μg/mL) is added to the wells and incubated at 37° C., 5% CO2. After 24 hours, the plate is centrifuged at 1200 rpm for 3 minutes and the supernatant discarded. Cells are then resuspended in 150 μL (final concentration 7.5 μg/mL) of propidium iodide (PI) in PBS and incubated at 37° C., 5% CO2 for 15 minutes. After 15 minutes, cells are analysed by flow cytometry (BD accuri) using the FL3 window. The % viability is calculated as the % of cells that are P negative in the test wells normalised to the DMSO control.

[1] = Microcentrifuge dissolution test 2): direct dosing into intestinal media containing simulated bile-salt micelles (IB-SIF); assay type: physicochemical; details: for Concentration, IB Timepoint 0 min / Concentration, IB Timepoint 4 min / Concentration, IB Timepoint 10 min / Concentration, IB Timepoint 20 min / Concentration, IB Timepoint 40 min / Concentration, IB Timepoint 90 min / Concentration, IB Timepoint 1,200 min / Additional concentration, UCF Timepoint 90 min: IB-SIF; for Concentration, IB Timepoint 0 min: pH 6.5, 0 min; for Concentration, IB Timepoint 4 min: pH 6.5, 4 min; for Concentration, IB Timepoint 10 min: pH 6.5, 10 min; for Concentration, IB Timepoint 20 min: pH 6.5, 20 min; for Concentration, IB Timepoint 40 min: pH 6.5, 40 min; for Concentration, IB Timepoint 90 min: pH 6.5, 90 min; for Concentration, IB Timepoint 1,200 min: pH 6.5, 1,200 min; for Additional concentration, UCF Timepoint 90 min / Additional concentration, UCF Timepoint 1,200 min: after ultracentrifugation (free drug + drug in micelles); for Additional concentration, UCF Timepoint 1,200 min: IB-SIF, 1,200 min
Protocol: In vitro non-sink dissolution performance of the Compound of Example 3 was evaluated alongside Reference Compounds A and B employing microcentrifuge dissolution tests in which samples were either 1) transferred from intestinal buffer (IB) to colonic buffer (CB) or 2) dosed directly into intestinal media containing simulated bile-salt micelles (IB-SIF). Dissolution performance of the compounds at various timepoints was determined by centrifugation and analysis of the supernatant concentrations by off-line reverse-phase HPLC analysis.
Test compounds (0.45 mg±0.05 mg) were weighed into a microcentrifuge tube then 1.800 mL of IB-SIF receptor solution—prepared previously by dissolution of 0.250 g SIF powder (Biorelevant.com) in 50 mL of pH 6.5 PBS warmed to 37° C.—was added. A timer was started and the sample tubes were vortexed at the maximum setting for 1 minute. When the timer read 2, 8, 18, 38, 88 and 1,198 min—corresponding to the 4, 10, 20, 40, 90 and 1,200 min timepoints, respectively—the sample tubes were centrifuged for 1 min at 15,800 RCF. Then, at each timepoint, the supernatant (50 μL) was added to diluent {250 μL of 75/25 THF/Water (v/v)} and the compound concentrations were measured by off-line HPLC analysis (Table 7a). To determine the concentration of free drug+drug in micelles, the HPLC samples for the 90 and 1,200 min timepoints were additionally centrifuged for 8 min at 80,000 rpm at 37° C. in an ultracentrifuge (UCF), then the supernatant (50 μL) was added to diluent {250 PL of 75/25 THF/Water (v/v)} and the compound concentrations were measured by off-line HPLC analysis (Table 7b).

p38 MAPKα, sequence (Q16539 whole entry): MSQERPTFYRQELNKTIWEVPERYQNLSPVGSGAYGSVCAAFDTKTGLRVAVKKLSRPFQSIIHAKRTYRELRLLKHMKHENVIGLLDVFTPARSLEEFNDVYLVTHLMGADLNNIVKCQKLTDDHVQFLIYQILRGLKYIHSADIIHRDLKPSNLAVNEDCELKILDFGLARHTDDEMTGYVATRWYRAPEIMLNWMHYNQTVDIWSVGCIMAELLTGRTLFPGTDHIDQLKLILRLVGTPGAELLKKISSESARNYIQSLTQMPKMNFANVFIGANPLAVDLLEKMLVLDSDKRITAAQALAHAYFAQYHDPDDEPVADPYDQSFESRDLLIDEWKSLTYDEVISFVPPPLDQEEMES

SMILES | IC50 (p38 MAPKα) | IC50 (c-Src) | IC50 (Syk) | IC50 (TNFα release in PBMCs) | % Viability at 1 μg/mL (Jurkat cells) | % Viability at 5 μg/mL (Jurkat cells) | % Viability at 20 μg/mL (Jurkat cells) | Concentration, IB Timepoint 0 min [1] | Concentration, IB Timepoint 4 min [1] | Concentration, IB Timepoint 10 min [1] | Concentration, IB Timepoint 20 min [1] | Concentration, IB Timepoint 40 min [1] | Concentration, IB Timepoint 90 min [1] | Concentration, IB Timepoint 1,200 min [1] | Additional concentration, UCF Timepoint 90 min [1] | Additional concentration, UCF Timepoint 1,200 min [1]
COc1cc(Nc2cc(Oc3ccc(NC(=O)Nc4cc(C(C)(C)C)cc(NS(C)(=O)=O)c4OC)c4ccccc34)ccn2)cc(OCCOCCOCC(=O)O)c1 [Example 3] | 23 nM | 18 nM | 12 nM | 10.8 nM | 99% | 99% | 96% | 0.0 µg/mL | 255.7 µg/mL | 255.9 µg/mL | 251.7 µg/mL | 249.2 µg/mL | 253.5 µg/mL | 239.0 µg/mL | 229.4 µg/mL | 169.9 µg/mL
COc1cc(Nc2nccc(Oc3ccc(NC(=O)Nc4cc(C(C)(C)C)cc(NS(C)(=O)=O)c4OC)c4ccccc34)n2)cc(OCCOCCOCCC(=O)O)c1 [Reference Compound A, 3-(2-(2-(3-((4-((4-(3-(5-(tert-butyl)-2-methoxy-3-(methylsulfonamido)phenyl)ureido)naphthalen-1-yl)oxy)-pyrimidin-2-yl)amino)-5-methoxyphenoxy)ethoxy)ethoxy)propanoic acid] | – | – | – | – | 96% | 93% | 48% | 0.0 µg/mL | 39.8 µg/mL | 63.4 µg/mL | 83.5 µg/mL | 96.5 µg/mL | 99.9 µg/mL | 101.0 µg/mL | 87.0 µg/mL | 88.8 µg/mL
C#Cc1cc(Nc2nccc(Oc3ccc(NC(=O)Nc4cc(C(C)(C)C)nn4-c4ccc(C)cc4)c4ccccc34)n2)cc(C(=O)NCCOCCOCCOC)c1 [Reference Compound B, 3-((4-((4-(3-(3-(tert-butyl)-1-(p-tolyl)-1H-pyrazol-5-yl)ureido)naphthalen-1-yl)oxy)pyrimidin-2-yl)amino)-5-ethynyl-N-(2-(2-(2-methoxyethoxy)ethoxy)ethyl)benzamide] | – | – | – | – | – | – | – | 0.0 µg/mL | 1.1 µg/mL | 0.9 µg/mL | 1.3 µg/mL | 1.0 µg/mL | 0.7 µg/mL | 3.0 µg/mL | 0.7 µg/mL | 2.9 µg/mL
